Results on six compounds are retold here after patent publication US8506947B2 (priority 1999, dated 2013).

Like-named read-outs stand apart in the source and are kept apart here.

The subject of data set [1] is hepatic metastases. Conditions: cited from earlier work.
In data set [2] the test system is melanoma cells. Conditions: after antibody-β-lactamase conjugate; cited from earlier work.
Data set [3] deals with intracerebral gliomas. Conditions: adenovirus carrying HSV-TK intratumorally, IP GCV twice daily for 6 days; cited from earlier work.
For data set [4], the system named is Murine colon adenocarcinoma cells (MC38 cells). The class given is cell-based.
In data set [5] the test system is sarcoma cells. Conditions: gpt gene retrovirally transduced; cited from earlier work.
For data set [6], the system named is glioma cells. To be noted: cited from earlier work.
Data set [7] relates to transduced sarcoma cell line. Conditions: cited from earlier work.
The test system of data set [8] is subcutaneous tumors (glioma-breast cancer) retrovirally transduced with CYP2B1. To be noted: single IP injection of cyclophosphamide; cited from earlier work.

Turning to `Cc1ncnc2c1ncn2[C@H]1C[C@H](O)[C@@H](CO)O1` [6-MPDR, 6-methylpurine deoxyriboside], the cure rate is 50% in data set [1] (every other daily injections of 6-MPDR) and 30% in data set [1] (weekly injections of 6-MPDR).
For `COc1cccc2c1C(=O)c1c(O)c3c(c(O)c1C2=O)C[C@@](O)(C(=O)CO)C[C@@H]3O[C@H]1C[C@H](NC(=O)OCC2=C(C(=O)O)N3C(=O)[C@@H](NC(=O)Cc4ccccc4)[C@H]3SC2)[C@H](O)[C@H](C)O1` [C-Dox, cephalosporin-doxorubicin], the “increase in the sensitivity of cells to the prodrugs” value in data set [2] is recorded as 4 fold.
With `Nc1nc(O)c2ncn(COC(CO)CO)c2n1` [GCV, Gancyclovir], in data set [3], the complete regressions is recorded as 2 and the “decrease in tumor size compared to controls” value is reported as 23 fold.
On to `Nc1nc(=O)[nH]cc1F` [5-FC, 5-fluorocytosine], for which, in data set [4], the “cells killed as a result of the 5-FC exposure” value was around 100% and the “effect of the 5-FC exposure on cells” value is recorded as “not affected”.
Turning to `O=c1[nH]c(=S)c2[nH]cnc2[nH]1` [6-TX, 6-thioxanthine], in data set [5], the increased sensitivity is 86 fold. The LD50 in data set [6] (glioma cells transduced with gpt) was 2.5 µmol/L. In data set [6] (untransfected cells at 50 umol/L), the “sensitivity of untransfected cells” value was “minimally sensitive”. Besides, the “treatment mortality due to toxicity of the converted prodrug” value in data set [7] (5 days of treatment with 6-TX) is 10%. Also, in data set [7] (after 5 days of treatment with 6-TX), the “complete regression, share of the animals” value was 95%.
Consider `O=P1(N(CCCl)CCCl)NCCCO1` (stereo not shown) [cyclophosphamide], for which, in data set [8], the “complete inhibition of tumors, share of animals” value is reported as 95%.
